The data set is described as follows: solubility test in water by visual inspection. It is filed as physicochemical. Conditions: room temperature (RT), one atmosphere, ultrasonic irradiation. As to the method:
In this example, the solubility of the organic compound that can be used in the display apparatus of one embodiment of the present invention is described. Note that the solubility test was conducted at a pressure of one atmosphere at room temperature (RT).
Into a 110 mL sample bottle, 1.22 mg of 2tiiSF was put and 10 mL of water was added thereto. This mixture was irradiated with ultrasonic waves for one minute. A precipitated white powder was found by visual inspection for an insoluble residue. After further addition of 10 mL of water and one-minute ultrasonic wave irradiation, a precipitated white powder was found by visual inspection. This procedure was repeated until the dissolution was confirmed by visual inspection.
The precipitated white powder was found until the total amount of water reached 100 mL.
Into a 110 mL sample bottle, 1.08 mg of 2hppSF was put and 10 mL of water was added thereto. This mixture was irradiated with ultrasonic waves for one minute. A precipitated white powder was found by visual inspection for an insoluble residue. After further addition of 10 mL of water and one-minute ultrasonic wave irradiation, a precipitated white powder was found by visual inspection. This procedure was repeated until the dissolution was confirmed by visual inspection.
The precipitated white powder was found until the total amount of water reached 50 mL. […]

Take `c1ccc2c(c1)-c1ccccc1C21c2ccccc2-c2ccc(N3CCN4CCN=C43)cc21` [2tiiSF, 1-(9,9′-spirobi[9H-fluoren]-2-yl)-2,3,5,6-tetrahydro-1H-imidazo[1,2-a]imidazole]: the “weight which can be dissolved in 1.0 mL of water” value is given as “less than 0.012 mg”.

For the origin of these results see patent publication US20240237526A1, “ORGANIC COMPOUND, LIGHT-EMITTING DEVICE, LIGHT-EMITTING APPARATUS, AND ELECTRONIC DEVICE” (SEMICONDUCTOR ENERGY LABORATORY CO., LTD., priority 2022, published 2024).
